Measured values taken from paper PMC12238253 (Nature Communications, 2025).

Biological target: T1, His6-LIMP-2_35-430 (Homo sapiens, UniProt Q14108)
T1 sequence (Q14108 35-430): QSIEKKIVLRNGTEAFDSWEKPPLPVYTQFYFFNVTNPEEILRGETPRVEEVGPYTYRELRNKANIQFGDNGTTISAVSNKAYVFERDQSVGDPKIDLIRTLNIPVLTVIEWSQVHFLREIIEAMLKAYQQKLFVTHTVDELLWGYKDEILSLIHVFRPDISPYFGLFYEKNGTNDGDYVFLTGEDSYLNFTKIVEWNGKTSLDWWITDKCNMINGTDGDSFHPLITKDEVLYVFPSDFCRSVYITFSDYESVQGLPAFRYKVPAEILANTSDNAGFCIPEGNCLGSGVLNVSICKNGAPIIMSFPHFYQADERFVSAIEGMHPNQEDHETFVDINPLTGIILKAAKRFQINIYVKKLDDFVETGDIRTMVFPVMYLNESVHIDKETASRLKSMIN
Assay: microscale thermophoresis
Type: binding

Row | Compound | Kd
1 | COc1ccc2cc1Oc1ccc(cc1)C[C@H]1c3cc(c(OC)cc3CCN1C)Oc1c(OC)c(OC)cc3c1[C@H](C2)N(C)CC3 [Tetrandrine] | 241 µM
2 | CC(C)CCC[C@@H](C)[C@H]1CC[C@H]2[C@@H]3CC=C4C[C@@H](O)CC[C@]4(C)[C@H]3CC[C@]12C [cholesterol] | 3.7 µM
